Experiment [1] has as its system M. smegmatis. The note with it: tlyA mutant P2U; cited from earlier work.
For experiment [2], the system named is E. coli DH1. Briefly: microbe, parasite or virus in culture. Particulars: Escherichia coli, DH1, read-out: Minimal inhibitory concentrations. The format is cell-based.
The test system of experiment [3] is E. coli strain AS19. Briefly: Agar plate MIC on hyperpermeable E. coli AS19. The note with it: Escherichia coli.
Method: Escherichia coli strain DH1 was used for cloning and expressing recombinant tlyA, and was grown by standard techniques (Sambrook et al., 1989). The hyperpermeable E. coli strain AS19 (Sekiguchi and Iida, 1967) was additionally used to express tlyA.
Overnight cultures of E. coli DH1 and AS19 strains were diluted 10^5-fold and plated onto agar containing viomycin (US Pharmacopeia), capreomycin, kanamycin or rifampicin (Sigma) with concentrations increasing in two-fold steps. The agar plates were incubated at 37° C.; and after 22 h, MICs were scored as the lowest concentration at which no growth was observed.
Experiment [4] concerns 70S ribosome (30S, 50S and 70S particles). The format is binding, Mycobacterium smegmatis.
Experiment [5] deals with M. smegmatis. Briefly: microbe, parasite or virus in culture. The format is cell-based, Mycobacterium smegmatis.
In experiment [6] the test system is S. avermitilis MA4630. In kind it is cell-based, Streptomyces avermitilis.
The test system of experiment [7] is S. coelicolor M145 and derived mutants. The format is cell-based, Streptomyces coelicolor.

Consider 5 compounds from patent US20100292137A1, “Antibiotics and Methods For Producing Them” (priority 2006, published 2010).

Converted amounts (≈) assume the structure as drawn. Starred links: 1 amine or outer side, 2 acyl side, 3 side chain; linkers in the order of their positions; H or OH if unused. Positions of bridges follow the written chain, without caps; N, C: chain ends. Non-standard residues stand in square brackets, D forms with d. Residues, ends and D or L forms follow the SMILES beside them. *: point of attachment. X1 = NC1=N[C@@H]([C@H](N[*:1])C(=O)[*:2])C[C@H](O)N1; ΔAla(Z-3-ureido) = NC(=O)N/C=C(\N)C(=O)O; β3hOrn = NCCC[C@H](N)CC(=O)*; Dap = NC[C@H](N)C(=O)O

On to `NCC[C@H](O)C(=O)N[C@@H]1C[C@H](N)[C@@H](O[C@H]2O[C@H](CN)[C@@H](O)[C@H](O)[C@H]2O)[C@H](O)[C@H]1O[C@H]1O[C@H](CO)[C@@H](O)[C@H](N)[C@H]1O` [amikacin], for which the susceptibility result in experiment [1] is “susceptible”.
For the compound `NC[C@H]1O[C@H](O[C@H]2[C@H](O)[C@@H](O[C@H]3O[C@H](CO)[C@@H](O)[C@H](N)[C@H]3O)[C@H](N)C[C@@H]2N)[C@H](O)[C@@H](O)[C@@H]1O` [kanamycin], in experiment [2], the MIC amounted to 4 µg/mL (≈ 8.26 µM).
Take `CO[C@H]1/C=C/O[C@@]2(C)Oc3c(C)c(O)c4c(O)c(c(/C=N/N5CCN(C)CC5)c(O)c4c3C2=O)NC(=O)/C(C)=C\C=C\[C@H](C)[C@H](O)[C@@H](C)[C@@H](O)[C@@H](C)[C@H](OC(C)=O)[C@@H]1C` [rifampicin]: the MIC in experiment [2] came to 4 µg/mL (≈ 4.86 µM); in experiment [3] it was 0.1 µg/mL (≈ 0.122 µM).
Consider `NCCC[C@H](N)CC(=O)N[C@H]1CNC(=O)[C@H]([C@H]2C[C@H](O)NC(N)=N2)NC(=O)/C(=C/NC(N)=O)NC(=O)[C@H](CO)NC(=O)[C@H](CO)NC1=O` [viomycin] (β3hOrn-[Dap]SS[ΔAla(Z-3-ureido)][X1]; lactam 1-C), for which the “binding interactions with the ribosome (footprints)” value in experiment [4] is listed as “occur only when the ribosomal subunits are associated into 70S couples”. In experiment [5] (Mycolicibacterium smegmatis), this compound showed an MIC of 20 to 40 µg/mL (≈ 29.2 to 58.3 µM).
With capreomycin, the “binding interactions with the ribosome (footprints)” value in experiment [4] is listed as “occur only when the ribosomal subunits are associated into 70S couples”. In experiment [6], this compound yielded an MIC value of 1 to 5 µg/mL. In experiment [7], the MIC value is 1 to 5 µg/mL, the “capreomycin concentration above which the strain is unable to grow” value stood at 5 µg/mL, the “capreomycin concentration at which the strain grew very well” value came out at 100 µg/mL and the “capreomycin concentration at which the strain still grows” value amounted to 100 µg/mL. Further, in experiment [7], the “capreomycin sensitivity after complementation” value is listed as “regained capreomycin sensitivity” and the “resistance relative to parent M145” value is on record as “more than 100 fold”. In addition, in experiment [5], the “MIC, minimal inhibitory concentration of capreomycin” value is below 10 µg/mL.
